Measured values: DBAASP
≈ marks a conversion by molar mass, not a printed value.

Tests used:
Assay in all cases: ≥ marks a high value that may be exact or a test limit, other limits are often not marked, values filed in µg/mL are converted to µM
[1] = test system: Candida albicans ATCC 2002
[2] = test system: Escherichia coli ATCC 25922
[3] = test system: Pseudomonas aeruginosa CMCCB 10104
[4] = test system: Staphylococcus aureus ATCC 25923
[5] = test system: Candida parapsilosis ATCC 22019
[6] = test system: Staphylococcus epidermidis ATCC 12228
Bacillus subtilis 168 = test system: Bacillus subtilis 168
Escherichia coli B = test system: Escherichia coli B
Pseudomonas aeruginosa = test system: Pseudomonas aeruginosa
Staphylococcus aureus = test system: Staphylococcus aureus
Bacillus subtilis = test system: Bacillus subtilis
Escherichia coli = test system: Escherichia coli

Compound	MIC [1]	MIC [2]	MIC [3]	MIC [4]	MIC (Bacillus subtilis 168)	MIC (Escherichia coli B)	MIC (Pseudomonas aeruginosa)	MIC (Staphylococcus aureus)	other results
CC(C)C[C@H](NC(=O)[C@H](CCC(=O)O)NC(=O)[C@@H]1CCCN1C(=O)[C@H](CCC(=O)O)NC(=O)[C@@H](NC(=O)[C@H](C)NC(=O)[C@H](C)NC(=O)[C@@H](N)CC(=O)O)C(C)C)C(=O)N[C@@H](Cc1ccc(O)cc1)C(=O)N[C@@H](Cc1cnc[nH]1)C(=O)N[C@@H](Cc1c[nH]c2ccccc12)C(=O)NCC(=O)N[C@@H](CCCCN)C(=O)N[C@H](C(=O)N[C@@H](Cc1c[nH]c2ccccc12)C(=O)N[C@@H](CC(C)C)C(=O)N1CCC[C@H]1C(=O)N[C@@H](CC(N)=O)C(=O)O)C(C)C [DAAVEPELYHWGKVWLPN]	≥ 94.1 µM	> 94.1 µM	≥ 94.1 µM	> 94.1 µM	–	–	–	–	–
C[C@@H](O)[C@H](NC(=O)[C@H](CO)NC(=O)[C@H](Cc1ccccc1)NC(=O)[C@@H](N)Cc1ccccc1)C(=O)N[C@@H](CO)C(=O)N[C@H]1CSSC[C@@H](C(=O)O)NC(=O)CNC(=O)[C@H](CO)NC(=O)[C@H](CCCN=C(N)N)NC1=O [FFSTSCRSGC]	≥ 91.4 µM	> 91.4 µM	≥ 91.4 µM	> 91.4 µM	–	–	–	–	–
CC[C@H](C)[C@H](NC(=O)[C@H](C)NC(=O)CNC(=O)[C@H](CC(C)C)NC(=O)[C@@H](N)Cc1ccccc1)C(=O)N[C@@H](C)C(=O)N[C@@H](CCC(N)=O)C(=O)N[C@@H](C)C(=O)N[C@@H](CC(C)C)C(=O)N[C@H](C(=O)N[C@@H](CO)C(=O)N[C@@H](CC(C)C)C(=O)N[C@@H](CC(C)C)C(=O)NCC(=O)N[C@@H](CCCCN)C(=O)N[C@@H](CC(C)C)C(N)=O)[C@@H](C)O [FLGAIAQALTSLLGKL]	–	> 128 µM	–	–	–	–	–	–	MIC [5]: ≥ 64 µM; MIC [6]: 8 µM (≈ 12.9 µg/mL)
CC(C)C[C@H](NC(=O)CNC(=O)[C@@H]1CCCN1C(=O)[C@H](CC(C)C)NC(=O)[C@@H](N)Cc1ccccc1)C(=O)N[C@@H](CCC(=O)O)C(=O)N[C@@H](CS)C(=O)N[C@H](C(=O)N[C@@H](Cc1c[nH]c2ccccc12)C(=O)O)C(C)C [FLPGLECVW]	≥ 188 µM	> 188 µM	≥ 188 µM	> 188 µM	–	–	–	–	–
CC[C@H](C)[C@@H]1NC(=O)[C@H](CCCCN)NC(=O)[C@@H](NC(=O)[C@H](CCCCN)NC(=O)[C@H](CC(C)C)NC(=O)[C@H](CC(N)=O)NC(=O)[C@H](CC(=O)O)NC(=O)[C@H](CC(C)C)NC(=O)[C@H](CC(C)C)NC(=O)[C@H](CC(N)=O)NC(=O)CNC(=O)[C@H](C)NC(=O)[C@H](CCSC)NC(=O)[C@H](CC(N)=O)NC(=O)[C@H](CCCCN)NC(=O)[C@H](C)NC(=O)[C@@H](NC(=O)[C@H](CC(N)=O)NC(=O)[C@H](CCCCN)NC(=O)[C@H](C)NC(=O)[C@@H](NC(=O)[C@H](CC(=O)O)NC(=O)[C@H](CCSC)NC(=O)[C@H](Cc2ccccc2)NC(=O)CN)[C@@H](C)O)C(C)C)CSSC[C@@H](C(=O)O)NC(=O)[C@H](C)NC(=O)[C@H](CCCCN)NC(=O)[C@H]([C@@H](C)O)NC1=O [GFMDTAKNVAKNMAGNLLDNLKCKITKAC]	0.803 µM (≈ 2.5 µg/mL)	1.61 µM (≈ 5 µg/mL)	3.21 µM (≈ 9.99 µg/mL)	0.803 µM (≈ 2.5 µg/mL)	–	–	–	–	–
CC[C@H](C)[C@@H]1NC(=O)[C@H](CCCCN)NC(=O)[C@@H](NC(=O)[C@H](CCCCN)NC(=O)[C@H](CC(C)C)NC(=O)[C@H](CC(N)=O)NC(=O)[C@H](CC(=O)O)NC(=O)[C@H](CC(C)C)NC(=O)[C@H](CC(C)C)NC(=O)[C@@H](NC(=O)[C@@H](NC(=O)[C@H](C)NC(=O)[C@H](CCSC)NC(=O)[C@H](CC(N)=O)NC(=O)[C@H](CCCCN)NC(=O)[C@H](C)NC(=O)[C@@H](NC(=O)[C@H](CC(N)=O)NC(=O)[C@H](CCCCN)NC(=O)[C@H](C)NC(=O)[C@@H](NC(=O)[C@H](CC(=O)O)NC(=O)[C@H](CCSC)NC(=O)[C@H](Cc2ccccc2)NC(=O)CN)[C@@H](C)O)C(C)C)C(C)C)[C@@H](C)O)CSSC[C@@H](C(=O)O)NC(=O)[C@H](C)NC(=O)[C@H](CCCCN)NC(=O)[C@H]([C@@H](C)O)NC1=O [GFMDTAKNVAKNMAVTLLDNLKCKITKAC]	1.21 µM (≈ 3.8 µg/mL)	2.39 µM (≈ 7.5 µg/mL)	2.39 µM (≈ 7.5 µg/mL)	1.21 µM (≈ 3.8 µg/mL)	–	–	–	–	–
CC[C@H](C)[C@H](NC(=O)CN)C(=O)N[C@@H](Cc1ccccc1)C(=O)NCC(=O)N[C@@H](CCCCN)C(=O)N[C@H](C(=O)N[C@@H](CC(C)C)C(=O)NCC(=O)N[C@H](C(=O)NCC(=O)N[C@@H](CCCCN)C(=O)N[C@@H](CCCCN)C(=O)N[C@H](C(=O)N[C@@H](CC(C)C)C(=O)N[C@H]1CSSC[C@@H](C(=O)O)NC(=O)[C@H](CCSC)NC(=O)CNC(=O)[C@H](CO)NC(=O)[C@H](CC(C)C)NC(=O)[C@H](CCC(=O)O)NC1=O)[C@@H](C)O)C(C)C)[C@@H](C)CC [GIFGKILGVGKKTLCELSGMC]	1.49 µM (≈ 3.2 µg/mL)	2.92 µM (≈ 6.29 µg/mL)	2.92 µM (≈ 6.29 µg/mL)	2.92 µM (≈ 6.29 µg/mL)	–	–	–	–	–
CC[C@H](C)[C@H](NC(=O)[C@H](CCCCN)NC(=O)[C@H](CO)NC(=O)[C@H](Cc1c[nH]c2ccccc12)NC(=O)[C@H](CCSC)NC(=O)CN)C(=O)N[C@@H](CC(C)C)C(=O)NCC(=O)N[C@@H](Cc1cnc[nH]1)C(=O)N[C@@H](CC(C)C)C(N)=O [GMWSKILGHL]	–	–	–	–	22.5 µM (≈ 25.7 µg/mL)	≥ 100 µM	> 100 µM	> 100 µM	–
CC[C@H](C)[C@H](NC(=O)[C@H](Cc1cnc[nH]1)NC(=O)[C@H](CCCCN)NC(=O)[C@H](CC(C)C)NC(=O)[C@H](CC(C)C)NC(=O)[C@H](CO)NC(=O)[C@H](CCSC)NC(=O)[C@H](Cc1c[nH]c2ccccc12)NC(=O)[C@H](CCCCN)NC(=O)[C@@H](N)CCCCN)C(=O)N[C@@H](CC(C)C)C(=O)N[C@@H](CCCCN)C(N)=O [KKWMSLLKHILK]	–	–	–	–	1.1 µM (≈ 1.68 µg/mL)	3 µM (≈ 4.57 µg/mL)	25 µM (≈ 38.1 µg/mL)	28.3 µM (≈ 43.1 µg/mL)	–
CC[C@H](C)[C@H](NC(=O)[C@H](CCCCN)NC(=O)[C@H](CCCCN)NC(=O)[C@H](Cc1c[nH]c2ccccc12)NC(=O)[C@@H](NC(=O)[C@@H](N)CC(N)=O)C(C)C)C(=O)N[C@@H](CC(C)C)C(=O)NCC(=O)N[C@@H](CCCCN)C(=O)N[C@H](C(=O)N[C@H](C(=O)N[C@@H](CCCCN)C(=O)N[C@H](C(=O)N[C@@H](C)C(=O)N[C@@H](CCCCN)C(N)=O)C(C)C)[C@@H](C)CC)[C@@H](C)CC [NVWKKILGKIIKVAK]	–	–	–	–	0.7 µM (≈ 1.22 µg/mL)	1.1 µM (≈ 1.91 µg/mL)	23.3 µM (≈ 40.5 µg/mL)	19.7 µM (≈ 34.2 µg/mL)	–
CC[C@H](C)[C@H](NC(=O)[C@H](C)NC(=O)[C@H](CCCN=C(N)N)NC(=O)[C@H](Cc1ccc(O)cc1)NC(=O)[C@H](CC(C)C)NC(=O)[C@H](CC(N)=O)NC(=O)[C@H](Cc1ccc(O)cc1)NC(=O)CNC(=O)[C@H](C)NC(=O)[C@@H](NC(=O)[C@@H](NC(=O)[C@@H](NC(=O)[C@H](CCCN=C(N)N)NC(=O)[C@@H](NC(=O)[C@@H](NC(=O)[C@@H](NC(=O)[C@@H]1CCCN1C(=O)[C@H](Cc1c[nH]c2ccccc12)NC(=O)[C@H](Cc1ccccc1)NC(=O)[C@@H](N)CCCN=C(N)N)C(C)C)C(C)C)[C@@H](C)CC)[C@@H](C)O)C(C)C)C(C)C)C(=O)N[C@@H](CCCCN)C(=O)N[C@@H](CCCCN)C(=O)N[C@@H](CCCCN)C(=O)O [RFWPVVIRTVVAGYNLYRAIKKK]	0.211 µM (≈ 0.586 µg/mL)	7.11 µM (≈ 19.8 µg/mL)	–	0.422 µM (≈ 1.17 µg/mL)	–	–	–	–	MIC (Bacillus subtilis): 2.53 µM (≈ 7.03 µg/mL)
CC[C@H](C)[C@H](NC(=O)[C@H](CCCCN)NC(=O)[C@H](CCCCN)NC(=O)[C@H](Cc1c[nH]c2ccccc12)NC(=O)[C@H](CC(N)=O)NC(=O)[C@@H](N)C(C)C)C(=O)N[C@@H](CC(C)C)C(=O)N[C@@H](C)C(=O)N[C@@H](CCCCN)C(=O)N[C@H](C(=O)N[C@H](C(=O)N[C@@H](CCCCN)C(=O)N[C@H](C(=O)N[C@@H](C)C(=O)N[C@@H](CCCCN)C(N)=O)C(C)C)[C@@H](C)CC)[C@@H](C)CC [VNWKKILAKIIKVAK]	–	–	–	–	0.7 µM (≈ 1.23 µg/mL)	0.7 µM (≈ 1.23 µg/mL)	22.5 µM (≈ 39.4 µg/mL)	4.3 µM (≈ 7.53 µg/mL)	–
CC[C@H](C)[C@H](NC(=O)[C@H](CCCCN)NC(=O)[C@H](CCCCN)NC(=O)[C@H](Cc1c[nH]c2ccccc12)NC(=O)[C@H](CC(N)=O)NC(=O)[C@@H](N)C(C)C)C(=O)N[C@@H](CC(C)C)C(=O)N[C@@H](C)C(=O)N[C@@H](CCCCN)C(=O)N[C@H](C(=O)N[C@H](C(=O)N[C@@H](CCCCN)C(=O)N[C@H](C(=O)N[C@H](C(=O)N[C@@H](CCCCN)C(N)=O)C(C)C)C(C)C)[C@@H](C)CC)[C@@H](C)CC [VNWKKILAKIIKVVK]	–	–	–	–	0.6 µM (≈ 1.07 µg/mL)	1.4 µM (≈ 2.49 µg/mL)	27.1 µM (≈ 48.2 µg/mL)	2.2 µM (≈ 3.91 µg/mL)	–
CC[C@H](C)[C@H](NC(=O)[C@H](CO)NC(=O)[C@H](C)NC(=O)[C@@H](NC(=O)[C@H](CCCCN)NC(=O)[C@H](CCCCN)NC(=O)[C@@H](N)Cc1c[nH]c2ccccc12)[C@@H](C)CC)C(=O)NCC(=O)N[C@@H](CCCCN)C(=O)N[C@@H](CCC(=O)O)C(=O)N[C@H](C(=O)N[C@@H](CC(C)C)C(=O)N[C@@H](CCCCN)C(=O)N[C@@H](C)C(=O)N[C@@H](CC(C)C)C(N)=O)C(C)C [WKKIASIGKEVLKAL]	–	–	–	–	–	–	–	–	MIC (Bacillus subtilis): ≥ 125 µM; MIC (Escherichia coli): 62 µM (≈ 104 µg/mL)
